Patent publication US10034879B2, “Substituted benzaldehyde compounds and methods for their use in increasing tissue oxygenation” (Global Blood Therapeutics, Inc., priority 2011, dated 2018)

Molecular target: T1, purified Hemoglobin S (HbS) (Homo sapiens, UniProt P68871+P69905, E7V)
T1 construct: HbS was purified by a modified procedure; from tissue; host or cells: blood of homozygous sickle cell patients
Experiment: Oxygen equilibrium curves (OEC) in purified HbS, HEMOX analyzer, change in p50
Assay type: biochemical
Conditions: 25 μM purified HbS
Method: Oxygen equilibrium curves (OEC) in purified Hemoglobin S (HbS) were measured by the change in p50, the partial pressure of oxygen at which the heme binding sites in the HbS sample are 50% saturated with oxygen. HbS was purified by a modified procedure (Antonini and Brunori, 1971; Heomoglobin and Myoglobin in their Reactions with Ligands; North Holland Publishing Company; Amsterdam, London) from blood obtained from homozygous sickle cell patients though the Hemoglobinopathy Center at Children's Hospital Oakland Research Institute (CHORI) with Institutional Review Board approval. Oxygen equilibrium curves were carried out with a HEMOX analyzer, (TCS Scientific, New Hope, Pa.). Five hundred μL of 250 μM purified HbS were diluted into 4.5 mL of HEMOX buffer (30 mM TES, 130 mM NaCl, 5 mM KCl, pH=7.4) resulting in a final hemoglobin concentration of 25 μM. The compounds were added at the final desired concentrations. The mixture was incubated for 45 min at 37° C. and then transferred to the Hemox sample chamber. The samples were saturated with oxygen by flushing with compressed air for 10 minutes. The samples were then flushed with pure nitrogen and the absorbance of deoxy-Hb was recorded as a function of the solution pO2. The oxygen equilibrium data was then fit to the Hill Model to obtain values for p50. The deoxygenation curves for both HbS alone (control) and HbS in the presence of compound were collected with the TCS software. The p50 for purified Hbs was typically 13.8±1.6. Delta p50 values were obtained from the p50 value for control minus the p50 value for HbS treated with compound divided by the p50 value for the control.
The compounds of Table 1 that were where tested in the assay above were all found to have positive delta p50 values. Delta p50% is calculated from [[p50(HbS)−p50(HbS treated with compound)]/p50(HbS)]×100. Table 2 below lists the delta p50% values where + indicates a delta p50% of between 0 and 29 and ++ indicates a delta p50% of 30 or greater. Unless noted otherwise, the compounds in Table 2 were tested at 30 μM.

Structure (SMILES)	delta p50 (compound at 100 μM)	delta p50 (compound at 30 μM)
COc1ccc(C=O)c(OCc2cccn3ccnc23)c1 [Compound 3, 2-(imidazo[1,2-a]pyridin-8-ylmethoxy)-4-methoxybenzaldehyde]	+ (100 μM) (+ indicates a delta p50% of between 0 and 29)	–
COc1ccc(OCc2ccc3nccn3c2)c(C=O)c1 [Compound 4, 2-(imidazo[1,2-a]pyridin-6-ylmethoxy)-5-methoxybenzaldehyde]	–	+ (+ indicates a delta p50% of between 0 and 29)
O=Cc1ccc(F)cc1OCc1cccn2ccnc12 [Compound 14, 4-fluoro-2-(imidazo[1,2-a]pyridin-8-ylmethoxy)benzaldehyde]	–	+ (+ indicates a delta p50% of between 0 and 29)
N#Cc1ccc(OCc2cccn3ccnc23)c(C=O)c1 [Compound 35, 3-formyl-4-(imidazo[1,2-a]pyridin-8-ylmethoxy)benzonitrile]	–	+ (+ indicates a delta p50% of between 0 and 29)
COc1ccc(OCc2cnc3ccccn23)c(C=O)c1 [Compound 9, 2-(imidazo[1,2-a]pyridin-3-ylmethoxy)-5-methoxybenzaldehyde]	–	+ (+ indicates a delta p50% of between 0 and 29)
O=Cc1cc(Br)ccc1OCc1cccn2ccnc12 [Compound 11, 5-bromo-2-(imidazo[1,2-a]pyridin-8-ylmethoxy)benzaldehyde]	–	+ (+ indicates a delta p50% of between 0 and 29)
N#Cc1ccc(C=O)c(OCc2cccn3ccnc23)c1 [Compound 2, 4-formyl-3-(imidazo[1,2-a]pyridin-8-ylmethoxy)benzonitrile]	–	+ (+ indicates a delta p50% of between 0 and 29)
COc1ccc(OCc2ccc3cnccn23)c(C=O)c1 [Compound 33, 5-methoxy-2-(pyrrolo[1,2-a]pyrazin-6-ylmethoxy)benzaldehyde]	+ (100 μM) (+ indicates a delta p50% of between 0 and 29)	–
O=Cc1ccccc1OCc1cccn2ccnc12 [Compound 13, 2-(imidazo[1,2-a]pyridin-8-ylmethoxy)benzaldehyde]	–	+ (+ indicates a delta p50% of between 0 and 29)
COc1ccc(OCc2cccn3ccnc23)c(C=O)c1 [Compound 1, 2-(imidazo[1,2-a]pyridin-8-ylmethoxy)-5-methoxybenzaldehyde]	–	++ (++ indicates a delta p50% of 30 or greater)
COc1ccc(C=O)c(OCc2cccn3cncc23)c1 [Compound 6, 2-(imidazo[1,5-a]pyridin-8-ylmethoxy)-4-methoxybenzaldehyde]	+ (100 μM) (+ indicates a delta p50% of between 0 and 29)	–
COc1ccc(OCc2ccnc3[nH]ccc23)c(C=O)c1 [Compound 21, 2-((1H-pyrrolo[2,3-b]pyridin-4-yl)methoxy)-5-methoxybenzaldehyde]	+ (100 μM) (+ indicates a delta p50% of between 0 and 29)	–
COc1ccc(NC(=O)c2cccn3ccnc23)c(C=O)c1 [Compound 38, N-(2-formyl-4-methoxyphenyl)imidazo[1,2-a]pyridine-8-carboxamide]	++ (100 μM) (++ indicates a delta p50% of 30 or greater)	–
COc1ccc(OCc2cccc3c2cnn3C)c(C=O)c1 [Compound 23, 5-methoxy-2-((1-methyl-1H-indazol-4-yl)methoxy)benzaldehyde]	–	++ (++ indicates a delta p50% of 30 or greater)
Cc1ccc(OCc2cccn3ccnc23)c(C=O)c1 [Compound 16, 2-(imidazo[1,2-a]pyridin-8-ylmethoxy)-5-methylbenzaldehyde]	–	+ (+ indicates a delta p50% of between 0 and 29)
O=Cc1ccccc1C(=O)Nc1cccn2ccnc12 [Compound 40, 2-formyl-N-(imidazo[1,2-a]pyridin-8-yl)benzamide]	–	+ (+ indicates a delta p50% of between 0 and 29)
COc1ccc(OCc2cccc3nccn23)c(C=O)c1 [Compound 37, 2-(imidazo[1,2-a]pyridin-5-ylmethoxy)-5-methoxybenzaldehyde]	–	+ (+ indicates a delta p50% of between 0 and 29)
COc1cccc(C=O)c1OCc1cccn2ccnc12 [Compound 15, 2-(imidazo[1,2-a]pyridin-8-ylmethoxy)-3-methoxybenzaldehyde]	+ (100 μM) (+ indicates a delta p50% of between 0 and 29)	–
